{"source": "patent US20090209497A1", "about": "“METHOD OF TREATING LYMPHANGIOLEIOMYOMATOSIS (LAM)” (priority 2005, published 2009)", "assay": "Doxycycline therapy of a patient with LAM: clinical improvement (FEV1, O2 saturation, 6-min walk test)", "type": "in vivo, human", "settings": "person with LAM, doxycycline 20 mg/day escalated up to 100 mg/day", "source_text": "FIGS. 1A-1B show successful treatment of LAM with doxycycline: monitoring therapeutic efficacy and measuring clinical improvement. […] Data points represent single measurements taken prior to or during doxycycline therapy. A person was diagnosed with LAM in 1975 after a partial nephrectomy for angiomyolipoma. Although stable for many years, their condition had deteriorated with an FEV1 as low as 0.48 liters (21 percent of predicted), and they were placed on the lung transplant list. […] Based on these elevated MMP levels, doxycycline was initiated at an initial dose of 20 mg/day. Dose escalation (up to 100 mg/day) was determined by monthly urinary MMP profiling (FIG. 1A) and how well the drug was tolerated. […] Telegraphic speech, which was present, resolved."}
{"smiles": "C[C@H]1c2cccc(O)c2C(=O)C2=C(O)[C@]3(O)C(=O)C(C(N)=O)=C(O)[C@@H](N(C)C)[C@@H]3[C@@H](O)[C@@H]21", "note": "[doxycycline]", "values": [{"measurement": "FEV1, percent of predicted", "setting": "before treatment 21 percent of predicted", "value": "35% of predicted"}, {"measurement": "FEV1 (lung capacity)", "setting": "before treatment as low as 0.48 liters", "value": 0.91, "unit": "L"}]}
